≈ marks a conversion by molar mass, not a printed value.
How the values were obtained:
Assay type in all cases: cell-based
[1] = system: Pseudomonas aeruginosa PAM 1020; test: MIC broth microdilution, P. aeruginosa PAM 1020 (wild type); conditions: P. aeruginosa PAM 1020
[2] = system: Pseudomonas aeruginosa PAM 1154; test: MIC broth microdilution, P. aeruginosa PAM 1154 (OprM::Hg); conditions: P. aeruginosa PAM 1154 OprM::Hg
[3] = system: Pseudomonas aeruginosa PAM 1135; test: MIC broth microdilution, P. aeruginosa PAM 1135 (high level UPA resistance); conditions: P. aeruginosa PAM 1135 UPA1^r
[4] = system: Pseudomonas aeruginosa PAM 1323; test: MIC broth microdilution, P. aeruginosa PAM 1323 (medium level UPA resistance)
Escherichia Coli MC 4100 = test: MIC broth microdilution, E. coli MC 4100 (wild type); conditions: E. coli MC 4100
[5] = system: Escherichia Coli MC 4100 AcrAB; test: MIC broth microdilution, E. coli MC 4100 AcrAB (ΔAcrAB); conditions: E. coli AcrAB
[6] = system: Escherichia Coli MC 4100 AcrAB UPA3r; test: MIC broth microdilution, E. coli MC 4100 AcrAB UPA3r (ΔAcrAB, UPA resistant); conditions: E. coli AcrAB UPA3^r
[7] = system: Staphylococcus aureus ATCC 29213; test: MIC broth microdilution, S. aureus ATCC 29213 (wild type); conditions: S. aureus ATCC 29213
[8] = system: Staphylococcus aureus 8325-4; test: MIC broth microdilution, S. aureus 8325-4 (wild type); conditions: S. aureus 8325-4
[9] = system: Pasteurella multocida pm002; test: MIC broth microdilution, P. multocida pm002 (wild type)

SMILES	MIC (μg/ml) Broth microdilution [1] [µg/mL]	MIC (μg/ml) Broth microdilution [2] [µg/mL]	MIC (μg/ml) Broth microdilution [3] [µg/mL]	MIC (μg/ml) Broth microdilution [4] [µg/mL]	MIC (μg/ml) Broth microdilution (Escherichia Coli MC 4100) [µg/mL]	MIC (μg/ml) Broth microdilution [5] [µg/mL]	MIC (μg/ml) Broth microdilution [6] [µg/mL]	MIC (μg/ml) Broth microdilution [7] [µg/mL]	MIC (μg/ml) Broth microdilution [8] [µg/mL]	MIC (μg/ml) Broth microdilution [9] [µg/mL]
CN[C@@H](C)[C@H](NC(=O)[C@H](Cc1ccccc1)NC(=O)N[C@@H](Cc1c[nH]c2ccccc12)C(=O)O)C(=O)NC[C@H]1C[C@@H](O)[C@H](n2ccc(=O)[nH]c2=O)O1 [Compound 151, 1-[5′-[(2S,3S)-N^2-[N-[[(1S)-1-Carboxy-2-indol-3-ylethyl]carbamoyl]-L-phenylalanyl]-N^3-methyl-2,3-diaminobutyramido]-3′,5′-dideoxy-α-L-arabinofuranosyl]uracil]	256 (≈ 356 µM)	32 (≈ 44.5 µM)	256 (≈ 356 µM)	256 (≈ 356 µM)	512 (≈ 712 µM)	4 (≈ 5.57 µM)	128 (≈ 178 µM)	>512	>512	256 (≈ 356 µM)
C[C@H](N)C(=O)N(C)[C@@H](C)[C@H](NC(=O)[C@H](Cc1ccc2ccccc2c1)NC(=O)N[C@@H](Cc1ccc(O)cc1)C(=O)O)C(=O)NC[C@H]1C[C@@H](O)[C@H](n2ccc(=O)[nH]c2=O)O1 [Compound 152, 1-[5′-[(2S,3S)-N^3-L-Alanyl-N^2-[N-[[(1S)-1-carboxy-4-hydroxyphenethyl)carbamoyl]-L-3-(2-naphthyl)alanyl]-N^3-methyl-2,3-diaminobutyramido]-3′,5′-dideoxy-α-L-arabinofuranosyl]uracil]	256 (≈ 313 µM)	64 (≈ 78.3 µM)	>512	>512	256 (≈ 313 µM)	2 (≈ 2.45 µM)	64 (≈ 78.3 µM)	>512	>512	>512
C[C@H](N)C(=O)N(C)[C@@H](C)[C@H](NC(=O)[C@H](Cc1ccc2ccccc2c1)NC(=O)N[C@@H](Cc1c[nH]c2ccccc12)C(=O)O)C(=O)NC[C@H]1C[C@@H](O)[C@H](n2ccc(=O)[nH]c2=O)O1 [Compound 153]	128 (≈ 152 µM)	16 (≈ 19 µM)	>512	>512	512 (≈ 610 µM)	2 (≈ 2.38 µM)	128 (≈ 152 µM)	512 (≈ 610 µM)	256 (≈ 305 µM)	64 (≈ 76.2 µM)
CC(C)CC(NC(=O)NC(Cc1ccc(O)cc1)C(=O)O)C(=O)NC(C(=O)NCC1CC(O)C(n2ccc(=O)[nH]c2=O)O1)C(C)N(C)C(=O)C(C)N [Compound 161, 1-[5′-[(2S,3S)-N^3-L-Alanyl-N^2-[N-[[(1S)-1-carboxy-4-hydroxyphenethyl)carbamoyl]-L-leucyl]-N^3-methyl-2,3-diaminobutyramido]-3′,5′-dideoxy-α-L-arabinofuranosyl]uracil]	16 (≈ 21.8 µM)	8 (≈ 10.9 µM)	>512	256 (≈ 349 µM)	>512	32 (≈ 43.7 µM)	256 (≈ 349 µM)	>512	>512	512 (≈ 699 µM)
CSCCC(N)C(=O)N(C)C(C)C(NC(=O)C(CCSC)NC(=O)NC(Cc1c[nH]c2ccccc12)C(=O)O)C(=O)NCC1CC(O)C(n2ccc(=O)[nH]c2=O)O1 [Compound 162, 1-[5′-[(2S,3S)-N^2-[N-[[(1S)-1-Carboxy-2-indol-3-ylethyl]carbamoyl]-L-methionyl]-N^3-L-methionyl-N^3-methyl-2,3-diaminobutyramido]-3′,5′-dideoxy-α-L-arabinofuranosyl]uracil]	64 (≈ 76.7 µM)	16 (≈ 19.2 µM)	256 (≈ 307 µM)	256 (≈ 307 µM)	512 (≈ 614 µM)	16 (≈ 19.2 µM)	512 (≈ 614 µM)	>512	>512	512 (≈ 614 µM)
CC(C(NC(=O)C(Cc1ccccc1)NC(=O)NC(Cc1c[nH]c2ccccc12)C(=O)O)C(=O)NCC1CC(O)C(n2ccc(=O)[nH]c2=O)O1)N(C)C(=O)C(N)Cc1ccc(O)cc1 [Compound 163, 1-[5′-[(2S,3S)-N^2-[N-[[(1S)-1-Carboxy-2-indol-3-ylethyl]carbamoyl]-L-phenylalanyl]-N^3-L-tyrosyl-N^3-methyl-2,3-diaminobutyramido]-3′,5′-dideoxy-α-L-arabinofuranosyl]uracil]	16 (≈ 18.1 µM)	16 (≈ 18.1 µM)	256 (≈ 290 µM)	256 (≈ 290 µM)	512 (≈ 581 µM)	4 (≈ 4.54 µM)	512 (≈ 581 µM)	>512	>512	256 (≈ 290 µM)
CN[C@@H](C)[C@H](NC(=O)[C@H](C)NC(=O)N[C@@H](Cc1c[nH]c2ccccc12)C(=O)O)C(=O)NC[C@H]1C[C@@H](O)[C@H](n2ccc(=O)[nH]c2=O)O1 [Compound 165, 1-[5′-[(2S,3S)-N^2-[N-[[(1S)-1-Carboxy-2-indol-3-ylethyl]carbamoyl]-L-alanyl]-N^3-methyl-2,3-diaminobutyramido]-3′,5′-dideoxy-α-L-arabinofuranosyl]uracil]	>512	128 (≈ 199 µM)	>512	>512	>512	4 (≈ 6.22 µM)	128 (≈ 199 µM)	>512	>512	256 (≈ 398 µM)
CSCCC(NC(=O)NC(Cc1c[nH]c2ccccc12)C(=O)O)C(=O)NC(C(=O)NCC1CC(O)C(n2ccc(=O)[nH]c2=O)O1)C(C)N(C)C(=O)C(C)N [Compound 167, 1-[5′-[(2S,3S)-N^3-L-Alanyl-N^2-[N-[[(1S)-1-carboxy-2-indol-3-ylethyl]carbamoyl]-L-methionyl]-N^3-methyl-2,3-diaminobutyramido]-3′,5′-dideoxy-α-L-arabinofuranosyl]uracil]	512 (≈ 662 µM)	256 (≈ 331 µM)	>512	512 (≈ 662 µM)	512 (≈ 662 µM)	4 (≈ 5.17 µM)	128 (≈ 165 µM)	>512	>512	128 (≈ 165 µM)

Reference: patent US6482921B1, “Uridyl peptide antibiotic (UPA) derivatives, their synthesis and use” (Essential Therapeutics, Inc., priority 1999, dated 2002)
